Tests used:
[1] = tested on: M1p58-66-specific CD8^+ αβ T cell clone FLUMA55; format: cell-based, human
[2] = tested on: Vγ9Vδ2^+ T cells; experiment: Expression of cell surface APC markers during γδ T cell activation with inhibitors; details: FIG. 19 B
[3] = tested on: naïve CD4^+ αβ T cells; format: cell-based, human
[4] = tested on: Melp26-35-specific, HLA-A2-restricted CD8^+ αβ T cell clone LAU 337; format: cell-based, human

C[C@H]1CCC/C=C/[C@@H]2C[C@H](O)C[C@H]2[C@H](O)/C=C/C(=O)O1 [brefeldin A]
inhibition of M1 cross-presentation in γδ T-APCs and DCs [1]: fully inhibited
responses to M1p58-66 pulsed APCs [1]: only partially affected
expression of cell surface APC markers (MHC II, CD71, CD80, CD86) after TCR-triggering [2]: inhibited

CCN(CC)CCCC(C)Nc1ccnc2cc(Cl)ccc12 (stereo not drawn) [chloroquin]
inhibition of M1 cross-presentation in γδ T-APCs and DCs [1]: ≤ 50%

CC(=O)N[C@@H](CSC(=O)[C@]1([C@@H](O)C(C)C)NC(=O)[C@H](C)[C@@H]1O)C(=O)O [lactacystin]
inhibition of M1 cross-presentation in γδ T-APCs and DCs [1]: fully inhibited
responses to M1p58-66 pulsed APCs [1]: only partially affected
expression of cell surface APC markers (MHC II, CD71, CD80, CD86) after TCR-triggering [2]: inhibited

phytohemagglutinin [PHA]
Vβ2^+ (%) [3]: 9%

B1: Melan-A: melanocyte/melanoma-differentiation antigen (protein, UniProt Q16655 1-118, looked up)
Melanoma antigen recognized …: MPREDAHFIYGYPKKGHGHSYTTAEEAAGIGILTVILGVLLLIGCWYCRRRNGYRALMDKSLHVGTQCALTRRCPQEGFDHRDSKVSLQEKNCEPVVPNAPPAYEKLSAEQSPPPYSP
IFN-γ production in Melp26-35-specific responder cell clones [4]: failed to induce IFN-γ production

From US8338173B2, “Preparation of antigen-presenting human γδ T cells and use in immunotherapy” (University College Cardiff Consultants Limited, priority 2005, dated 2012)
